Measurements: paper PMC10060354, “Discovery of a small molecule ligand of FRS2 that inhibits invasion and tumor growth” (Cellular Oncology, 2022)

Tests used:
AKT(pS473) = assay: Immunoblotting, AKT phosphorylation; type: cell-based, human; settings: SW780 cells
Description: Cells were serum starved o.n. and 10 µM compound or 1 µM (BGJ398) were added 3 h before stimulation with 100 ng/ml bFGF for 15 min. Cells were lysed in RIPA buffer containing protease inhibitor cocktail and lysates resolved by SDS-PAGE. Membranes were probed with primary antibodies against phospho-FRS2, FRS2, phospho-ERK1/2, ERK1/2, pAKT, AKT and tubulin. Integrated density of immuno-reactive bands was quantified using Adobe Photoshop CS3. Integrated densities of phospho bands relative to non-phospho bands of same protein were calculated and plotted as fold-change relative to untreated control conditions. Compounds and BGJ398 were added in DMSO and corresponding DMSO concentrations were used in control samples.

AGS flank tumors = assay: Anti-tumor activity, AGS flank xenograft model; type: in vivo
Description: In vivo mouse models were generated and experiment with SKOV3 and AGS models performed by EPO, experimental pharmacology & oncology Berlin-Buch GMBH (Berlin, Germany). AGS model: AGS cells were cultured in F12-K medium (10%FCS, 1%PS) until P11. […]. Tumor diameters were determined by calliper measurements 2 × weekly, body weight (BW) was measured as parameter for tolerability 2 × weekly.

DAOY FRS2-FLAG cells = assay: SIA, bFGF-induced collagen I invasion in FRS2-FLAG overexpressing cells; type: cell-based; settings: Homo sapiens
Description: (§1) 1000—2500 cells/well in 100 μl were seeded in 96 well Corning® Spheroid microplate (CLS4520, Sigma-Aldrich) or in cell-repellent 96 well microplate (650,790, Greiner Bio-one). SIA and analysis was performed as described before. In brief: After spheroid formation (24 – 72 h after seeding), 70 µl medium was removed and replaced with the collagen mixture (2.5 mg/ml Pure Col Collagen I (Advanced Biomatrix)), DMEM 1x (from 10 × stock, Sigma, D2429) and 0.4% Sodium bicarbonate (Sigma, S8761)), resulting in a final collagen concentration of 1.75 mg/ml. Embedded spheroids were stimulated with bFGF (100 ng/ml if not otherwise stated), HGF (30 ng /ml) or EGF (20 ng/ml) and distance of invaded cells quantified 24 – 48 h after embedding. Compounds and BGJ398 were added in Dimethylsulfoxid (DMSO) and corresponding DMSO concentrations were used in control samples.
Lentiviral construct pLV[Exp]-hPGK > hFRS2[NM_001278357.1](ns)*/3xFLAG:P2A:Puro was ordered from VectorBuilder (Santa Clara, CA, USA). A FLAG-tag ([…]) was fused to the C-terminus of FRS2. Lentiviral particles were produced by transfection of HEK-293 T cells with transfer plasmids, psPAX2 (#12,260, Addgene) and pCMV-VSV-G plasmid (#8454, Addgene) in a ratio of 5:3:2 using polyethlenimine (24,765–2. Polysciences). Virus supernatant was harvested 30 h post transfection and filtered. […]

DAOY = assay: CellTiter-Glo 3D cell viability; type: cell-based; settings: Homo sapiens, full growth medium, 48 h
Description: (§2) Cell viability was determined using CellTiter-Glo® 2D or 3D cell viability assays (#G9242, #G9682, Promega). 500 cells/25 µl were seeded in flat bottom (#781,091, Greiner bio-one) or U-low adhesion (#4516, Corning) 384-well plate, 24 h prior to treatment. Increasing concentrations of compounds are deposited on cells using a HP Digital Drug Dispenser with DMSO total volume normalization. After 48 h, the CellTiter-Glo® 2D or 3D reagent was added (volume/volume) following manufacturer’s instructions. Plates were incubated at RT (room temperature) under agitation for 30 min and luminescence representing the number of viable cells was quantified with a Cytation 3 imaging reader (BioTek®). Experiments were performed independently three times with three technical replicas each.

SKOV3 = assay: CellTiter-Glo 3D cell viability; type: cell-based; settings: Homo sapiens, SK-OV-3, full growth medium, 48 h
Description: as §2

HCT116 [1] = assay: CellTiter-Glo 3D cell viability; type: cell-based; settings: Homo sapiens, HCT-116, full growth medium, 48 h
Description: as §2

AGS = assay: CellTiter-Glo 3D cell viability; type: cell-based; settings: Homo sapiens, full growth medium, 48 h
Description: as §2

RT-112 = assay: CellTiter-Glo 3D cell viability; type: cell-based; settings: Homo sapiens, RT-112, 48 h
Description: as §2

M059K = assay: CellTiter-Glo 3D cell viability; type: cell-based; settings: Homo sapiens, full growth medium, 48 h
Description: as §2

DAOY siFRS2 cells = assay: SIA, bFGF-induced collagen I invasion in FRS2-depleted cells; type: cell-based, human
Description: as §1
siFRS2 in DAOY cells: 50,000 cells/well in 2 ml medium were seeded in 6 well plates and incubated at 37 °C, 5% CO2. The following day cells were transfected with 10 nM siRNA (5 nM Silencer Select, 5 nM Stealth RNAi siRNA) using Lipofectamin RNAiMAX Transfection Reagent (13,778,075; Invitrogen) and Opti-MEM® medium (15,392,402; Gibco). After 6 h, the medium was exchanged with fresh complete medium and further processed for the SIA protocol.

HCT116 [2] = assay: Boyden chamber transwell migration assay; type: cell-based, human; settings: 2.5, 5 or 10 µM, 48 h
Description: (§3) Transwells with 5 μm pore size (83.3932.500; Sarstedt) were coated with 50 µl of 0.06 μg/μl Pure Col Collagen I (5005; Advanced BioMatrix) dissolved in 100% EtOH for a final concentration of 10 μg/cm^2. 10,000 – 15,000 cells were resuspended in serum-free medium or serum-free medium containing the appropriate treatment and seeded in the upper chamber of a 24 well plate containing the coated transwell. The lower chamber was filled with either serum-free medium or serum-free medium with bFGF (25 ng/ml). Transwell migration was allowed for 24 h (DMS114) or 48 h (HCT116) at 37 °C, 5% CO2. Inserts were washed twice with PBS and the remaining non-invading cells on the upper surface of the membrane were removed using a cotton swab. The cells were fixed in 4% paraformaldehyde (28908; Thermo Fisher Scientific) in PBS for 5 min at RT. Fixed cells were washed twice with PBS and stained with DAPI for 15 min at RT. Inserts were washed three times in PBS before images of DAPI-stained nuclei were acquired using a widefield Nikon Ti2 microscope at 40 × magnification. Nuclei were counted on the membrane areas using ImageJ software and plotted on Prism 9 software (GraphPad).

DMS114 = assay: Boyden chamber transwell migration assay; type: cell-based, human; settings: 24 h
Description: as §3

[3] = AGS model, 200 mg/kg PO once per day

Structure (SMILES) | pAKT (result in words) (AKT(pS473)) | tolerability in AGS tumor-bearing mice (result in words) (AGS flank tumors; 200 mg/kg PO, treatment interrupted for 7 days at day 72) | animals with TV reduced at d67 and plateaued between d70 and 77 (AGS flank tumors; [3]) | average tumor volume (result in words) (AGS flank tumors; [3]) | IC50 (DAOY FRS2-FLAG cells) [µM] | IC50 (DAOY) [µM] | IC50 (SKOV3) [µM] | IC50 (HCT116 [1]) [µM] | IC50 (AGS) [µM] | IC50 (RT-112) [µM] | IC50 (M059K) [µM] | IC50 (DAOY siFRS2 cells; Homo sapiens, DAOY siFRS2 (reduced FRS2)) [µM] | increase of IC50 in cells with reduced FRS2 compared to control (DAOY siFRS2 cells; siFRS2 vs siCTL) | basal and bFGF-increased transwell migration (result in words) (HCT116 [2]) | concentration at which significant reduction of transwell migration was observed (DMS114) [µM]
Cc1[nH]nc(-c2ccc(O)c(C)c2O)c1-c1nc2ccccc2s1 [Compound E12] | increase in pAKT | – | – | – | – | – | – | – | – | – | – | – | – | – | –
O=[N+]([O-])c1c(Cl)cc(O)c2c1C1C=CCC1C(c1ccc(Cl)cc1)N2 (stereo not drawn) [Compound 7] | – | signs of toxicity | four out of the six | did not significantly reduce average TV compared to control | 4.16 | 6.56 | 9.46 | 4.56 | 3.35 | 12.3 | 15.2 | 7.96 | more than 2.5 fold | abolished | 10
